Results taken from patent US20260007599A1, “TICAGRELOR IV FORMULATIONS FOR USE IN THE TREATMENT OF GRAM-POSITIVE BACTEREMIA” (Hyloris Developments SA, priority 2023, published 2026).

What was measured:
[1] = Solubilization of ticagrelor in unbuffered cyclodextrin stock solutions in milli Q water, appearance on shaking platform; format: physicochemical;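 for Appearance in cyclodextrin: plus means clear and fully dissolved while plus-minus means clear solution with precipitation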
Description: In a first example two different types of cyclodextrin were used and compared for the solubilization of ticagrelor. An unbuffered stock solution of HPBCD or SBECD was made in water at the target concentrations of 20 w/w %, 25 w/w %, 30 w/w %, 35 w/w % and 40 w/w %. Ticagrelor was added slowly under vortex. Ticagrelor was used at concentrations of 5, 10 or 14 mg/ml in milli Q water. The ticagrelor-cyclodextrin solutions were left on a shaking platform. No sonification or heat was applied.

[2] = tested on: Staphylococcus agalactiae; conditions: ex-vivo; cited from earlier work

With `CCCSc1nc(N[C@@H]2C[C@H]2c2ccc(F)c(F)c2)c2nnn([C@@H]3C[C@H](OCCO)[C@@H](O)[C@H]3O)c2n1` [ticagrelor, (1S,2S,3R,5S)-3-{7-[(1R,2S)-2-(3,4-difluorophenyl)cyclopropylamino]5-(propylthio)-3H-(1,2,3)triazolo (4,5-D)pyrimidin-3-yl}-5-(2 hydroxyethoxy) cyclopentane-1,2-diol] the Appearance in cyclodextrin ([1]; HPβCD 25% w/w, ticagrelor 14 mg/ml, after overnight shaking) was “− (translucent solution with precipitation)”, the Appearance in cyclodextrin ([1]; HPβCD 30% w/w, ticagrelor 5 mg/ml, after 5 min of shaking) was “− (translucent solution with precipitation)” and the Appearance in cyclodextrin ([1]; HPβCD 30% w/w, ticagrelor 5 mg/ml, after 30 min of shaking) was “+/−”. For the same molecule, the Appearance in cyclodextrin ([1]; HPβCD 30% w/w, ticagrelor 5 mg/ml, after 60 min of shaking) was “+/−”, the Appearance in cyclodextrin ([1]; HPβCD 30% w/w, ticagrelor 5 mg/ml, after 3 h of shaking) was “+/−” and the Appearance in cyclodextrin ([1]; HPβCD 30% w/w, ticagrelor 5 mg/ml, after overnight shaking) was “+ (clear, appeared completely dissolved)”. For the same molecule, the Appearance in cyclodextrin ([1]; HPβCD 30% w/w, ticagrelor 10 mg/ml, after 5 min of shaking) was “− (translucent solution with precipitation)”, the Appearance in cyclodextrin ([1]; HPβCD 30% w/w, ticagrelor 10 mg/ml, after 30 min of shaking) was “− (translucent solution with precipitation)” and the Appearance in cyclodextrin ([1]; HPβCD 30% w/w, ticagrelor 10 mg/ml, after 60 min of shaking) was “− (translucent solution with precipitation)”. For the same molecule, the Appearance in cyclodextrin ([1]; HPβCD 30% w/w, ticagrelor 10 mg/ml, after 3 h of shaking) was “− (translucent solution with precipitation)”, the Appearance in cyclodextrin ([1]; HPβCD 30% w/w, ticagrelor 10 mg/ml, after overnight shaking) was “− (translucent solution with precipitation)” and the Appearance in cyclodextrin ([1]; HPβCD 30% w/w, ticagrelor 14 mg/ml, after 5 min of shaking) was “− (translucent solution with precipitation)”. For the same molecule, the Appearance in cyclodextrin ([1]; HPβCD 30% w/w, ticagrelor 14 mg/ml, after 30 min of shaking) was “− (translucent solution with precipitation)”, the Appearance in cyclodextrin ([1]; HPβCD 30% w/w, ticagrelor 14 mg/ml, after 60 min of shaking) was “− (translucent solution with precipitation)” and the Appearance in cyclodextrin ([1]; HPβCD 30% w/w, ticagrelor 14 mg/ml, after 3 h of shaking) was “− (translucent solution with precipitation)”. For the same molecule, the Appearance in cyclodextrin ([1]; HPβCD 30% w/w, ticagrelor 14 mg/ml, after overnight shaking) was “− (translucent solution with precipitation)”, the Appearance in cyclodextrin ([1]; HPβCD 35% w/w, ticagrelor 5 mg/ml, after 5 min of shaking) was “+/−” and the Appearance in cyclodextrin ([1]; HPβCD 35% w/w, ticagrelor 5 mg/ml, after 30 min of shaking) was “+/−”. The Appearance in cyclodextrin ([1]; HPβCD 35% w/w, ticagrelor 5 mg/ml, after 60 min of shaking) was “+/−”, the Appearance in cyclodextrin ([1]; HPβCD 35% w/w, ticagrelor 5 mg/ml, after 3 h of shaking) was “+/−” and the Appearance in cyclodextrin ([1]; HPβCD 35% w/w, ticagrelor 5 mg/ml, after overnight shaking) was “+ (clear, appeared completely dissolved)”. The Appearance in cyclodextrin ([1]; HPβCD 35% w/w, ticagrelor 10 mg/ml, after 5 min of shaking) was “− (translucent solution with precipitation)”, the Appearance in cyclodextrin ([1]; HPβCD 35% w/w, ticagrelor 10 mg/ml, after 30 min of shaking) was “+/−” and the Appearance in cyclodextrin ([1]; HPβCD 35% w/w, ticagrelor 10 mg/ml, after 60 min of shaking) was “+/−”. The Appearance in cyclodextrin ([1]; HPβCD 35% w/w, ticagrelor 10 mg/ml, after 3 h of shaking) was “+/−”, the Appearance in cyclodextrin ([1]; HPβCD 35% w/w, ticagrelor 10 mg/ml, after overnight shaking) was “+ (clear, appeared completely dissolved)” and the Appearance in cyclodextrin ([1]; HPβCD 35% w/w, ticagrelor 14 mg/ml, after 5 min of shaking) was “− (translucent solution with precipitation)”. The Appearance in cyclodextrin ([1]; HPβCD 35% w/w, ticagrelor 14 mg/ml, after 30 min of shaking) was “+/−”, the Appearance in cyclodextrin ([1]; HPβCD 35% w/w, ticagrelor 14 mg/ml, after 60 min of shaking) was “+/−” and the Appearance in cyclodextrin ([1]; HPβCD 35% w/w, ticagrelor 14 mg/ml, after 3 h of shaking) was “+/−”. For the same molecule, the Appearance in cyclodextrin ([1]; HPβCD 35% w/w, ticagrelor 14 mg/ml, after overnight shaking) was “+/−”, the Appearance in cyclodextrin ([1]; HPβCD 40% w/w, ticagrelor 5 mg/ml, after 5 min of shaking) was “+ (clear, appeared completely dissolved)” and the Appearance in cyclodextrin ([1]; HPβCD 40% w/w, ticagrelor 5 mg/ml, after 30 min of shaking) was “+ (clear, appeared completely dissolved)”. For the same molecule, the Appearance in cyclodextrin ([1]; HPβCD 40% w/w, ticagrelor 5 mg/ml, after 60 min of shaking) was “+ (clear, appeared completely dissolved)”, the Appearance in cyclodextrin ([1]; HPβCD 40% w/w, ticagrelor 5 mg/ml, after 3 h of shaking) was “+ (clear, appeared completely dissolved)” and the Appearance in cyclodextrin ([1]; HPβCD 40% w/w, ticagrelor 5 mg/ml, after overnight shaking) was “+ (clear, appeared completely dissolved)”. For the same molecule, the Appearance in cyclodextrin ([1]; HPβCD 40% w/w, ticagrelor 10 mg/ml, after 5 min of shaking) was “− (translucent solution with precipitation)”, the Appearance in cyclodextrin ([1]; HPβCD 40% w/w, ticagrelor 10 mg/ml, after 30 min of shaking) was “+/−” and the Appearance in cyclodextrin ([1]; HPβCD 40% w/w, ticagrelor 10 mg/ml, after 60 min of shaking) was “+/−”. For the same molecule, the Appearance in cyclodextrin ([1]; HPβCD 40% w/w, ticagrelor 10 mg/ml, after 3 h of shaking) was “+/−”, the Appearance in cyclodextrin ([1]; HPβCD 40% w/w, ticagrelor 10 mg/ml, after overnight shaking) was “+ (clear, appeared completely dissolved)” and the Appearance in cyclodextrin ([1]; HPβCD 40% w/w, ticagrelor 14 mg/ml, after 5 min of shaking) was “− (translucent solution with precipitation)”. The Appearance in cyclodextrin ([1]; HPβCD 40% w/w, ticagrelor 14 mg/ml, after 30 min of shaking) was “+/−”, the Appearance in cyclodextrin ([1]; HPβCD 40% w/w, ticagrelor 14 mg/ml, after 60 min of shaking) was “+/−” and the Appearance in cyclodextrin ([1]; HPβCD 40% w/w, ticagrelor 14 mg/ml, after 3 h of shaking) was “+/−”. The Appearance in cyclodextrin ([1]; SBECD 35% w/w, ticagrelor 5 mg/ml, after 5 min of shaking) was “− (translucent solution with precipitation)”, the Appearance in cyclodextrin ([1]; SBECD 35% w/w, ticagrelor 5 mg/ml, after 30 min of shaking) was “+/−” and the Appearance in cyclodextrin ([1]; SBECD 35% w/w, ticagrelor 5 mg/ml, after 60 min of shaking) was “+/−”. For the same molecule, the Appearance in cyclodextrin ([1]; SBECD 35% w/w, ticagrelor 5 mg/ml, after 3 h of shaking) was “+/−”, the Appearance in cyclodextrin ([1]; SBECD 35% w/w, ticagrelor 5 mg/ml, after overnight shaking) was “− (translucent solution with precipitation)” and the Appearance in cyclodextrin ([1]; SBECD 35% w/w, ticagrelor 10 mg/ml, after 5 min of shaking) was “− (translucent solution with precipitation)”. The Appearance in cyclodextrin ([1]; SBECD 35% w/w, ticagrelor 10 mg/ml, after 30 min of shaking) was “− (translucent solution with precipitation)”, the Appearance in cyclodextrin ([1]; SBECD 35% w/w, ticagrelor 10 mg/ml, after 60 min of shaking) was “− (translucent solution with precipitation)” and the Appearance in cyclodextrin ([1]; SBECD 35% w/w, ticagrelor 10 mg/ml, after 3 h of shaking) was “− (translucent solution with precipitation)”. The Appearance in cyclodextrin ([1]; SBECD 35% w/w, ticagrelor 10 mg/ml, after overnight shaking) was “− (translucent solution with precipitation)”, the Appearance in cyclodextrin ([1]; SBECD 35% w/w, ticagrelor 14 mg/ml, after 5 min of shaking) was “− (translucent solution with precipitation)” and the Appearance in cyclodextrin ([1]; SBECD 35% w/w, ticagrelor 14 mg/ml, after 30 min of shaking) was “− (translucent solution with precipitation)”. The Appearance in cyclodextrin ([1]; SBECD 35% w/w, ticagrelor 14 mg/ml, after 60 min of shaking) was “− (translucent solution with precipitation)”, the Appearance in cyclodextrin ([1]; SBECD 35% w/w, ticagrelor 14 mg/ml, after 3 h of shaking) was “− (translucent solution with precipitation)” and the Appearance in cyclodextrin ([1]; SBECD 35% w/w, ticagrelor 14 mg/ml, after overnight shaking) was “− (translucent solution with precipitation)”. For the same molecule, the Appearance in cyclodextrin ([1]; SBECD 40% w/w, ticagrelor 10 mg/ml, after 5 min of shaking) was “− (translucent solution with precipitation)”, the Appearance in cyclodextrin ([1]; SBECD 40% w/w, ticagrelor 10 mg/ml, after 30 min of shaking) was “− (translucent solution with precipitation)” and the Appearance in cyclodextrin ([1]; SBECD 40% w/w, ticagrelor 10 mg/ml, after 60 min of shaking) was “− (translucent solution with precipitation)”. For the same molecule, the Appearance in cyclodextrin ([1]; SBECD 40% w/w, ticagrelor 10 mg/ml, after 3 h of shaking) was “− (translucent solution with precipitation)”, the Appearance in cyclodextrin ([1]; SBECD 40% w/w, ticagrelor 10 mg/ml, after overnight shaking) was “− (translucent solution with precipitation)” and the Appearance in cyclodextrin ([1]; SBECD 40% w/w, ticagrelor 14 mg/ml, after 5 min of shaking) was “− (translucent solution with precipitation)”. For the same molecule, the Appearance in cyclodextrin ([1]; SBECD 40% w/w, ticagrelor 14 mg/ml, after 30 min of shaking) was “− (translucent solution with precipitation)”, the Appearance in cyclodextrin ([1]; SBECD 40% w/w, ticagrelor 14 mg/ml, after 60 min of shaking) was “− (translucent solution with precipitation)” and the Appearance in cyclodextrin ([1]; SBECD 40% w/w, ticagrelor 14 mg/ml, after 3 h of shaking) was “− (translucent solution with precipitation)”. The Appearance in cyclodextrin ([1]; SBECD 40% w/w, ticagrelor 14 mg/ml, after overnight shaking) was “− (translucent solution with precipitation)”, the Appearance on standing ([1]; ticagrelor 5 mg/ml in HPBCD 40%, 35% or 30% w/w in milliQ water, at least three days at room temperature and several days at 4° C.) was “remained clear” and the minimal bactericidal concentration [2] was 40 microgram/ml.
